For 2 compounds, Ki results are on record in BindingDB's records for doi:10.1016/0922-4106(95)90014-4 (University of Cagliari, 1995).

The target of the assay is Gamma-aminobutyric acid receptor subunit alpha-1 (Rattus norvegicus, UniProt P62813).

Usually Ki stands for the equilibrium dissociation constant of an inhibitor or competing ligand from its target. A low value points to higher affinity.

“And” between values parts separate entries of the source, which are not always exact repeats. Equal values may be shown once.

Chain of Gamma-aminobutyric acid receptor subunit alpha-1 (P62813 whole entry): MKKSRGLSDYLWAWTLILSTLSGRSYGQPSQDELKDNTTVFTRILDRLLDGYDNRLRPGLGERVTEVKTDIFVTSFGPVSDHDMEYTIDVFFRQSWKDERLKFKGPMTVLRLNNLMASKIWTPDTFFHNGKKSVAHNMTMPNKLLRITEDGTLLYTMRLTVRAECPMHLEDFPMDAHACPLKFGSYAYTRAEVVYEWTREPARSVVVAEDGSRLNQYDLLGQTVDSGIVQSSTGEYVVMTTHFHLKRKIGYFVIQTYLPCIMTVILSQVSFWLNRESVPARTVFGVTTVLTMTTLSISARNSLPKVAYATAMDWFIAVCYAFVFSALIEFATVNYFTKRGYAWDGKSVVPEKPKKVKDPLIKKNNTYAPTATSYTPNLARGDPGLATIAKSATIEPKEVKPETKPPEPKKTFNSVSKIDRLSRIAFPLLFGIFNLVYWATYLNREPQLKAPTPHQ

As to `CN1C(=O)CN=C(c2ccccc2F)c2cc([N+](=O)[O-])ccc21` [Flunitrazepam], the Ki is 1.37 nM and 1.52 nM. Compound `Cc1nnc2ccc(-c3cccc(C(F)(F)F)c3)nn12` registered a Ki of 1310 nM.
